Measured values as given in patent US9409983B2, “Methods and compositions involving PBEF inhibitors for lung inflammation conditions and diseases” (The Board of Trustess of the University of Illinois, priority 2009, dated 2016).
“Also recorded” adds a separate entry of the source.

What was measured:
[1] = tested on: rat peritoneal neutrophils; experiment: Transmigration and chemotaxis assay (Transwell); type: cell-based; conditions: rhPBEF (10 ng/ul) or casein in lower chamber, up to 4 hours
Method: Chemotaxis of rat peritoneal neutrophils (calcein-AM) across 3 μm polycarbonate filters was assessed in response to recombinant human PBEF/visfatin (rhPBEF, PeproTech, Rocky Hill, N.J.), or casein (positive control). (See Supplemental Methods for additional details).
Neutrophils were collected from retired breeder male Harlan-Sprague Dawley rats by intraperitoneal injection of 2.5% casein (5 ml). The resulting peritoneal fluid was recovered by PBS peritoneal lavage after 18 hr, centrifuged and examined for total cell counts and cell differentiation. For chemotaxis assays, leukocytes were exposed to calcein-AM in the presence of plurionic acid for 1 hr at room temperature. The temperature was then elevated to 37° C. for 30 min to cleave the calcein AM thereby reducing the rate of calcein diffusion out of the cells. […] The receiving wells were assessed serially in a fluorescent plate reader with absorption at 494 nm and emission measured at 517 nm. Fluorescence was recorded at 5, 10, 15, 30 min and each subsequent 30 min period for up to 4 hr. Aliquots of known numbers of neutrophils were counted in separate wells at each time point to account for any quenching of the fluorescence over time.

C57BL/6 mice = experiment: rhPBEF challenge in limited ventilator-induced lung injury model (VILIa, 30 ml/kg); type: in vivo, mouse
Method: The first VILI model was designed to produce limited lung injury (VILIa, tidal volume 30 ml/kg), thus allowing assessment of potential synergy with rhPBEF challenge. Male C57BL/6J B6 mice were anesthetized with ketamine/acepromazine, intubated and administered rhPBEF (20 μg/mouse) via an intratracheal (IT) route ˜30 min before ventilator placement (room air, tidal volume 30 ml/kg, 65 breaths/minute, 0 cm H2O PEEP) for 4 hr as previously described (Nonas et al., 2007; Moitra et al., 2007). Groups included a spontaneous breathing group (SB), a spontaneous breathing group challenged with rhPBEF (SB-rhPBEF), a high tidal ventilation group (VILIa), and a high tidal ventilation group with rhPBEF challenge (VILIa-rhPBEF) (n=4-6 all groups).
BAL fluid recovered as we previously described was used for multiple assays including total BAL protein, and BAL cell differentials (Peng et al., 2004). Tissue albumin content was assessed as previously described (Nonas et al., 2007). Cytokine levels in BAL fluid (IL-1β, IL-6, KC, MIP2, TNF-α) were analyzed by multiplex assays (Bio-Rad, Hercules, Calif., USA). BAL PBEF levels were assayed by a C-terminal ELISA (Phoenix Pharmaceuticals Inc. Belmont, Calif.) and analyzed using the SoftmaxPRO software (Molecular Devices Corp). (See Supplemental Methods).
We utilized two experimental models of ventilator-induce lung injury in these experiments. Our first approach (VILIa) utilized a VILI protocol with a tidal volume of 30 ml/kg designed to produce limited lung injury in order to allow assessment of potential synergism between delivered PBEF and mechanical ventilation-induced lung injury. Male C57BL/6J mice (8-12 wk old, 24.7±2.0 g) were weighed, anesthetized with ketamine/acepromazine, intubated using a 20 gauge catheter (Medex, Inc, Carlsbad, Calif.) and administered recombinant PBEF (20 μg/mouse in 1.5 μl water per gram body weight or vehicle equal volumes of water) via an intratracheal (IT) route ˜30 min before being placed on mechanical ventilation as we have previously described (Peng et al., 2004). Mice were then connected to Harvard Apparatus ventilator (Boston, Mass.) at room air, tidal volume of 30 ml/kg, 65 breaths/minute, and positive expiratory pressure (PEEP) 0 cm H2O for 4 hr. Groups of mice were randomly allocated to either the spontaneous breathing group (SB) (n=4), the spontaneous breathing challenged with IT rhPBEF group (SB-rhPBEF) (n=6), the high tidal ventilation group (VILIa) (n=6), or high tidal ventilation with rhPBEF group (VILIa-rhPBEF) (n=6). Normal saline (0.2 cc) was given via intraperitoneal injection at the beginning and 2 hours later to all ventilated mice and peak inspiratory pressure was monitored continuously. Temperature was maintained with heat blanket to all mice during experiment.
Mice underwent bronchioalveolar lavage (BAL) of both lungs with Hank's balanced salt solution (1 mL/mouse), and the recovered BAL fluid was used for assays as we have previously described (Peng et al., 2004). Total protein was measured using the Bio-Rad DC Protein Assay (Bio-Rad Laboratories, Hercules, Calif.) (Peng et al., 2004). Protein results were expressed as mg/ml to allow for comparison to other studies. Lavage samples were centrifuged at 500×g on a refrigerated micro centrifuge for 20 min. The supernatant was decanted and aliquot for protein assays. The BAL cells were resuspended in Hank's balanced salt solution and counted using a hemacytometer using standard techniques.
Re-suspended BAL cells from lung lavage were centrifuged using a Shandon Cytospin-2 at 600 RPM for 15 min, fixed by air-drying, and stained with Diff-Quik dye for differential counts (Peng et al., 2004). Stained cell slides were evaluated and differentially counted for each individual animal (lymphocyte, neutrophil or a macrophage).
BAL fluid for cytokine measurements was stored at −80° C. until analysis. […]

Substance: rhPBEF: Recombinant human soluble PBEF/visfatin, a 52 kDa protein containing 465 amino acid residues, purchased from PeproTech
- PMN migration across Transwell filters [1]: significant PMN migration beginning after 2 hrs; also recorded: significant PMN migration beginning at 2 hrs
- BAL IL-1β (C57BL/6 mice): 53 ± 4 pg/mL
- BAL IL-6 (C57BL/6 mice): 957 ± 103 pg/mL
- BAL KC (C57BL/6 mice): 2310 ± 263 pg/mL
- BAL MIP-2 (C57BL/6 mice): 30480 ± 219 pg/mL
- BAL TNF-α (C57BL/6 mice): 985 ± 293 pg/mL
- BAL cytospin (400×) (C57BL/6 mice; 20 μg rhPBEF): dramatic influx of neutrophils into the alveolar space
- histologic assessment of lung tissue (hematoxylin and eosin) (C57BL/6 mice; intratracheal rhPBEF 30 min prior to mechanical ventilation for 4 hr): greater alveolar wall thickening, and neutrophil infiltration into the lung interstitium and alveolar space; also recorded: dramatically augmented
